Counter-ions that a name gives are not always drawn. Like-named read-outs stand apart in the source and are kept apart here.
Molecular target: human cloned 5-HT6 receptors (Homo sapiens, UniProt P50406)
Experiment: 5-HT6 receptor affinity (procedures outlined in WO98/27081)
Type: binding
Source text: Compounds can be tested following the procedures outlined in WO98/27081.

Sequence of human cloned 5-HT6 receptors (P50406 whole entry): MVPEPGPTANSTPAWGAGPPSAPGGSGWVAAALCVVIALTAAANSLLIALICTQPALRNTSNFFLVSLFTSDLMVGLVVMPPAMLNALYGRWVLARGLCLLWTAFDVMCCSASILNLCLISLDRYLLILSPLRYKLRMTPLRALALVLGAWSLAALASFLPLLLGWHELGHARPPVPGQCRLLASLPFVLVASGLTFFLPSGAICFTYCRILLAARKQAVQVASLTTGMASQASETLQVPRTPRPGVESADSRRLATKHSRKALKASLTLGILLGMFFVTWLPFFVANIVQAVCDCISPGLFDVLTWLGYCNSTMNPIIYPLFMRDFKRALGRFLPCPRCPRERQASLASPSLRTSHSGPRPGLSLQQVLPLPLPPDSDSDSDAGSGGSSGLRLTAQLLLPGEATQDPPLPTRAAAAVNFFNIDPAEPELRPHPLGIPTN

| Ki (human cloned 5-HT6 receptors, read-out: pKi (converted)) [nM] | SMILES | Ki [nM] |
| --- | --- | --- |
|  | Clc1cccc(Cc2cnc3c(N4CCNCC4)cccc3c2)c1 [Example E1, 3-[(3-Chlorophenyl)methyl]-8-(1-piperazinyl)quinoline hydrochloride] | < 31.6 |
| < 31.6 | O=C(c1cccc(Cl)c1)c1cnc2c(N3CCNCC3)cccc2c1 [Example E2, (3-Chlorophenyl)[8-(1-piperazinyl)-3-quinolinyl]methanone hydrochloride] |  |

From US7439243B2, “Piperazinyl-quinoline derivatives useful for the treatment of CNS disorders” (Glaxo Group Limited, priority 2003, dated 2008)
